Test system: normal rabbits
Assay: In vivo hypoglycemic effect, rabbit esophageal ligation model
Settings: insulin solution 3 mg/mL
Procedure: The relative pharmacological bioactivity of insulin delivered via the transmucosal route by IPC-DNVs in different drug doses, delivery sites, ligation times, drug concentrations, sizes, and deformabilities was evaluated in normal rabbits by assessing the hypoglycemic effects. […] After fasting for 2 h, the rabbits were weighed and anesthetized with pentobarbital (2%, 50 mg/kg) through the ear margin vein. During anesthesia, the animals were restrained in a supine position to a board. The esophagus was surgically ligated to prevent swallowing. The drug solution for buccal administration (oral mucosa) was divided into four parts; two parts for administration via sublingual mucosa, and two parts for administration via left and right buccal mucosa. The sublingual mucosa and the buccal mucosa groups were administered only to the sublingual mucosa or buccal mucosa. After administration of the drug solution for 30 min (except the group with ligation time of 15 min), the esophagus was untied, and the response of the animals was observed. Blood samples were collected from the ear veins at predetermined time intervals (0, 0.5, 1, 1.5, 2, 2.5, 3, 3.5, 4, 4.5, 5, and 6 h) after DNVs administration and blood glucose levels were measured using a Blood Analyzer (ONETOUCH Ultra; Johnson & Johnson, New Brunswick, NJ, USA). […]

With “Recombinant human insulin [insulin solution]” the hypoglycemic effect (1 IU/kg, subcutaneous administration) was “evident” and the “glucose levels within 6 h after buccal administration” value (10 IU/kg, buccal administration (control)) was “barely changed”.
